Where two headings read alike, the source gives them in different places.
How the values were obtained:
Type in all cases: cell-based, human
[1] = tested on: non-senescent control IMR90 ER:RAS cells; assay: Nuclei count (Hoechst, high content imaging) senolytic assay, OIS model, non-senescent control cells; details: Homo sapiens; for viability at 4.677 µM: log (dose) [M] -5.33, 72 h; for viability at 2.188 µM: log (dose) [M] -5.66, 72 h; for viability at 1 µM: log (dose) [M] -6, 72 h; for viability at 2.19 µM: log (dose) [M] -5.66
How it was run: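 We compared total nuclei counts between senescent and non-senescent IMR90 ER:RAS cells after 72 h compound exposure (10 nM–10 μM). Hoechst staining followed fixation and permeabilisation; ouabain served as senolytic positive control.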

[2] = tested on: non-senescent control A549 cells; assay: Nuclei count senolytic assay, TIS model, non-senescent control cells; details: Homo sapiens, A549, Control cells, mean, read-out: Mean % Cell Survival; for viability at 10 µM: log (dose) [M] -5; for viability at 4.68 µM: log (dose) [M] -5.33; for viability at 2.19 µM: log (dose) [M] -5.66; for viability at 1 µM: log (dose) [M] -6; for viability at 0.468 µM: log (dose) [M] -6.33; for viability at 0.219 µM: log (dose) [M] -6.66; for viability at 0.1 µM: log (dose) [M] -7; for viability at 0.0468 µM: log (dose) [M] -7.33; for viability at 0.0219 µM: log (dose) [M] -7.66; for viability at 0.01 µM: log (dose) [M] -8
How it was run: (§1)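 Nuclei counting by high-content imaging after 72 h compound treatment of senescent (etoposide-induced) versus control A549 cells. Top dose 10 μM final, lowest 10 nM.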

[3] = tested on: senescent A549 cells (etoposide-induced); assay: Nuclei count senolytic assay, therapy-induced senescence (TIS) model, senescent cells; details: Homo sapiens, A549, Senescent cells, mean, read-out: Mean % Cell Survival; for viability at 10 µM: log (dose) [M] -5; for viability at 4.68 µM: log (dose) [M] -5.33; for viability at 2.19 µM: log (dose) [M] -5.66; for viability at 1 µM: log (dose) [M] -6; for viability at 0.468 µM: log (dose) [M] -6.33; for viability at 0.219 µM: log (dose) [M] -6.66; for viability at 0.1 µM: log (dose) [M] -7; for viability at 0.0468 µM: log (dose) [M] -7.33; for viability at 0.0219 µM: log (dose) [M] -7.66; for viability at 0.01 µM: log (dose) [M] -8
How it was run: as §1

[4] = IMR-90, 72 h, Control, log (dose) [M] -5, 72 h, mean n=3 (Fig 3C), read-out: Mean % Cell Survival
[5] = IMR-90, 72 h, Control, mean n=3 (Fig 3C), read-out: Mean % Cell Survival
[6] = IMR-90, 72 h, Control, log (dose) [M] -6.33, 72 h, mean n=3 (Fig 3C), read-out: Mean % Cell Survival
[7] = IMR-90, 72 h, Control, log (dose) [M] -6.66, 72 h, mean n=3 (Fig 3C), read-out: Mean % Cell Survival
[8] = IMR-90, 72 h, Control, log (dose) [M] -7, 72 h, mean n=3 (Fig 3C), read-out: Mean % Cell Survival
[9] = IMR-90, 72 h, Control, log (dose) [M] -7.33, 72 h, mean n=3 (Fig 3C), read-out: Mean % Cell Survival
[10] = IMR-90, 72 h, Control, log (dose) [M] -7.66, 72 h, mean n=3 (Fig 3C), read-out: Mean % Cell Survival
[11] = IMR-90, 72 h, Control, log (dose) [M] -8, 72 h, mean n=3 (Fig 3C), read-out: Mean % Cell Survival
[12] = IMR-90, Control, read-out: % Cell Survival

SMILES | viability at 10 µM [1, 4] | viability at 4.677 µM [1, 5] | viability at 2.188 µM [1, 5] | viability at 1 µM [1, 5] | viability at 0.4677 µM [1, 6] | viability at 0.2188 µM [1, 7] | viability at 0.1 µM [1, 8] | viability at 0.04677 µM [1, 9] | viability at 0.02188 µM [1, 10] | viability at 0.01 µM [1, 11] | viability at 2.19 µM [1, 12] | viability at 10 µM [2] | viability at 4.68 µM [2] | viability at 2.19 µM [2] | viability at 1 µM [2] | viability at 0.468 µM [2] | viability at 0.219 µM [2] | viability at 0.1 µM [2] | viability at 0.0468 µM [2] | viability at 0.0219 µM [2] | also measured
CO[C@H]1C[C@@H]2CC[C@@H](C)[C@@](O)(O2)C(=O)C(=O)N2CCCC[C@H]2C(=O)O[C@H]([C@H](C)C[C@@H]2CC[C@@H](O)[C@H](OC)C2)CC(=O)[C@H](C)/C=C(\C)[C@@H](O)[C@@H](OC)C(=O)[C@H](C)C[C@H](C)/C=C/C=C/C=C/1C [Rapamycin, rapamycin, reference compound] | 98.8% | 100% | 89.2% | 83.1% | 85.7% | 86.6% | 92.6% | 86.3% | 95.8% | 100% | 80.5% | 74.6% | 60.2% | 54% | 104% | 117% | 122% | 128% | 102% | 117% | viability at 10 µM ([1]; IMR-90, Control cells, log (dose) [M] -5, individual replicates, SUP FIG 4C, read-out: % Cell Survival): 91.9%; viability at 0.4677 µM ([1]; IMR-90, Control cells, log (dose) [M] -6.33, individual replicates, SUP FIG 4C, read-out: % Cell Survival): 77.2%; viability at 0.2188 µM ([1]; IMR-90, Control cells, log (dose) [M] -6.66, individual replicates, SUP FIG 4C, read-out: % Cell Survival): 83%; viability at 0.1 µM ([1]; IMR-90, Control cells, log (dose) [M] -7, individual replicates, SUP FIG 4C, read-out: % Cell Survival): 91%; viability at 0.04677 µM ([1]; IMR-90, Control cells, log (dose) [M] -7.33, individual replicates, SUP FIG 4C, read-out: % Cell Survival): 89.7%; viability at 0.02188 µM ([1]; IMR-90, Control cells, log (dose) [M] -7.66, individual replicates, SUP FIG 4C, read-out: % Cell Survival): 93%; viability at 0.01 µM ([1]; IMR-90, Control cells, log (dose) [M] -8, individual replicates, SUP FIG 4C, read-out: % Cell Survival): 109%; viability at 0.01 µM [2]: 116%; viability at 10 µM [3]: 212%; viability at 4.68 µM [3]: 215%; viability at 2.19 µM [3]: 208%; viability at 1 µM [3]: 228%; viability at 0.468 µM [3]: 246%; viability at 0.219 µM [3]: 228%; viability at 0.1 µM [3]: 250%; viability at 0.0468 µM [3]: 249%; viability at 0.0219 µM [3]: 69.5%; viability at 0.01 µM [3]: 93.7%
CO[C@H]1C[C@@H]2CC[C@@H](C)[C@@](O)(O2)C(=O)C(=O)N2CCCC[C@H]2C(=O)O[C@H]([C@H](C)C[C@@H]2CC[C@@H](OP(C)(C)=O)[C@H](OC)C2)CC(=O)[C@H](C)/C=C(\C)[C@@H](O)[C@@H](OC)C(=O)[C@H](C)C[C@H](C)/C=C/C=C/C=C/1C [Ridaforolimus, ridaforolimus, reference compound] | 75.2% | 82.6% | 82.3% | 77.9% | 87.6% | 91.5% | 77.4% | 106% | 88.9% | 92.5% | 107% | 110% | 121% | 69% | 65.1% | 96% | 102% | 97.4% | 108% | 74.4% | viability at 10 µM ([1]; IMR-90, Control, log (dose) [M] -5, read-out: % Cell Survival): 119%; viability at 0.468 µM ([1]; IMR-90, Control, log (dose) [M] -6.33, read-out: % Cell Survival): 105%; viability at 0.219 µM ([1]; IMR-90, Control, log (dose) [M] -6.66, read-out: % Cell Survival): 109%; viability at 0.1 µM ([1]; IMR-90, Control, log (dose) [M] -7, read-out: % Cell Survival): 97%; viability at 0.04677 µM ([1]; IMR-90, Control, log (dose) [M] -7.33, read-out: % Cell Survival): 115%; viability at 0.0219 µM ([1]; IMR-90, Control, log (dose) [M] -7.66, read-out: % Cell Survival): 113%; viability at 0.01 µM ([1]; IMR-90, Control, log (dose) [M] -8, read-out: % Cell Survival): 113%; viability at 0.01 µM [2]: 107%; viability at 10 µM [3]: 162%; viability at 4.68 µM [3]: 174%; viability at 2.19 µM [3]: 157%; viability at 1 µM [3]: 66.9%; viability at 0.468 µM [3]: 113%; viability at 0.219 µM [3]: 102%; viability at 0.1 µM [3]: 60.6%; viability at 0.0468 µM [3]: 60.9%; viability at 0.0219 µM [3]: 84.7%; viability at 0.01 µM [3]: 87.1%
